ChEMBL document CHEMBL5715954, “Silencing c-Myc translation as a therapeutic strategy through targeting PI3Kδ and CK1ε in hematological malignancies” (Blood, 2017)

Columns and labels:
Set-up in all cases: scale not given: the % may be the effect or the level left
[1] = target: Calcium/calmodulin-dependent protein kinase type II subunit gamma (Homo sapiens) (UniProt Q13555); assay: Inhibition of human CAMK2g assessed as enzyme activity at 1 uM using KKLNRTLSFAEPG as substrate preincubated for 20 mins followed by [gamma-33P]-ATP addition and measured after 120 mins by radiometric Hot-SpotSM Kinase assay relative to control
Chain of Calcium/calmodulin-dependent protein kinase type II subunit gamma (Homo sapiens) (Q13555 whole entry): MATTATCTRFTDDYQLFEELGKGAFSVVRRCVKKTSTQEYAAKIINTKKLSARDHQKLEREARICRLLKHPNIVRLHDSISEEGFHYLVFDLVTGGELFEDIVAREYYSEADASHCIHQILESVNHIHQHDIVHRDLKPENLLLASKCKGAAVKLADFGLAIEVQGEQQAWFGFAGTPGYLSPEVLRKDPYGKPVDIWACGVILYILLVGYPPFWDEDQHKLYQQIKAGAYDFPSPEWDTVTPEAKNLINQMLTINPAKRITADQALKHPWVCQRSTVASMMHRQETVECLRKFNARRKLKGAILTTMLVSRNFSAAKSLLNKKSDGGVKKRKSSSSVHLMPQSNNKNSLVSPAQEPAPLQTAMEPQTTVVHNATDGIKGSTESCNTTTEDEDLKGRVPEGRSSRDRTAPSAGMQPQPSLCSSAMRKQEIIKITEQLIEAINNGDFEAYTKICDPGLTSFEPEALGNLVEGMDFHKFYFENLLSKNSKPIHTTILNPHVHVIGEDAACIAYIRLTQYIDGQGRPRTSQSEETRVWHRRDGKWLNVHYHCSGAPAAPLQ

[2] = target: CDK6/cyclin D1 (Homo sapiens) (UniProt P24385+Q00534); assay: Inhibition of human CDK6/cyclin D1 assessed as enzyme activity at 1 uM using RB Protein as substrate preincubated for 20 mins followed by [gamma-33P]-ATP addition and measured after 120 mins by radiometric Hot-SpotSM Kinase assay relative to control; assay type: protein-complex assay
[3] = target: T1, MAP/microtubule affinity-regulating kinase 4 (Homo sapiens) (UniProt Q96L34); assay: Inhibition of human MARK4 assessed as enzyme activity at 1 uM using KKKVSRSGLYRSPSMPENLNRPR as substrate preincubated for 20 mins followed by [gamma-33P]-ATP addition and measured after 120 mins by radiometric Hot-SpotSM Kinase assay relative to control
T1 sequence (whole entry): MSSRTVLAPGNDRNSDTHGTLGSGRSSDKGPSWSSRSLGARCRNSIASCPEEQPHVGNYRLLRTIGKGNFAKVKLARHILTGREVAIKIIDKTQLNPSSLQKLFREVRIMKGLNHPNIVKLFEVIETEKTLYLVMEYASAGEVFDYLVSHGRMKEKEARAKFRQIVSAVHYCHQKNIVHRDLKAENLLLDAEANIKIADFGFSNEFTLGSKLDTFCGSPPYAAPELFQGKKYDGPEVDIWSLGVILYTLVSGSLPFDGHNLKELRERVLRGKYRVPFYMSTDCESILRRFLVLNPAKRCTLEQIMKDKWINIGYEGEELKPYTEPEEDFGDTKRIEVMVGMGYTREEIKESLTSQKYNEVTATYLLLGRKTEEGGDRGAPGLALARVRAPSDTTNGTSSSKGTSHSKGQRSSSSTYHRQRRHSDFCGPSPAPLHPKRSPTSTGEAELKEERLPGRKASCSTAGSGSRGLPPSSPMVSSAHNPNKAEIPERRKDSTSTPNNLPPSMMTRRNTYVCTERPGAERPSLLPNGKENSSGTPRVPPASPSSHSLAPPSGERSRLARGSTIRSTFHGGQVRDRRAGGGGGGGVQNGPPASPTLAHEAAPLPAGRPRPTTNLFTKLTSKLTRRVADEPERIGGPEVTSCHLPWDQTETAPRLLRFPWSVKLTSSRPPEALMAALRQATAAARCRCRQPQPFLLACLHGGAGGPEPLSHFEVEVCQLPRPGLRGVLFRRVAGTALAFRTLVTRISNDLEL

[4] = target: T2, Serine/threonine-protein kinase DCLK2 (Homo sapiens) (UniProt Q8N568); assay: Inhibition of human DCAMKL2 assessed as enzyme activity at 1 uM using KKLNRTLSFAEPG as substrate preincubated for 20 mins followed by [gamma-33P]-ATP addition and measured after 120 mins by radiometric Hot-SpotSM Kinase assay relative to control
T2 sequence (whole entry): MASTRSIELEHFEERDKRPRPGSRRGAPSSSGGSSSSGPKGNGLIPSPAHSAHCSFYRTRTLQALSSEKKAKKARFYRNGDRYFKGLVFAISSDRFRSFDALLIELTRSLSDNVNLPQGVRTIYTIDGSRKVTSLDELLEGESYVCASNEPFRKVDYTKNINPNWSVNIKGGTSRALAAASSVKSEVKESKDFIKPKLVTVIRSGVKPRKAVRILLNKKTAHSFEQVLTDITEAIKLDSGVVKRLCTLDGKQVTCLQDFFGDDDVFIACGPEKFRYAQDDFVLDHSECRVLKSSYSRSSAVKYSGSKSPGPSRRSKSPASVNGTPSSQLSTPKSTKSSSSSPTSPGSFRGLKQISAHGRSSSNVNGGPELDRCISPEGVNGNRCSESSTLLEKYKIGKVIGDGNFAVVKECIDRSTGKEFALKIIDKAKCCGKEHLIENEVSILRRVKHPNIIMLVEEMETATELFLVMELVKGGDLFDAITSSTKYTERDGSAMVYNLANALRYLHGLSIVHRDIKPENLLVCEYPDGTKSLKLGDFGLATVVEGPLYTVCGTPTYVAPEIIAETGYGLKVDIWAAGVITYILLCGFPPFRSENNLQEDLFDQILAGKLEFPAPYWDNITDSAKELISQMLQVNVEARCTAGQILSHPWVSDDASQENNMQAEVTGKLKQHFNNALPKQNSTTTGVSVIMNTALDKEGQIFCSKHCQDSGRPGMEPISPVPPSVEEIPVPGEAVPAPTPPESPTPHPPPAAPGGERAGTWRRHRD

[5] = target: T3, Myosin light chain kinase family member 4 (Homo sapiens) (UniProt Q86YV6); assay: Inhibition of human MYLK4 assessed as enzyme activity at 1 uM using KKRPQRRYSNVF as substrate preincubated for 20 mins followed by [gamma-33P]-ATP addition and measured after 120 mins by radiometric Hot-SpotSM Kinase assay relative to control
T3 sequence (whole entry): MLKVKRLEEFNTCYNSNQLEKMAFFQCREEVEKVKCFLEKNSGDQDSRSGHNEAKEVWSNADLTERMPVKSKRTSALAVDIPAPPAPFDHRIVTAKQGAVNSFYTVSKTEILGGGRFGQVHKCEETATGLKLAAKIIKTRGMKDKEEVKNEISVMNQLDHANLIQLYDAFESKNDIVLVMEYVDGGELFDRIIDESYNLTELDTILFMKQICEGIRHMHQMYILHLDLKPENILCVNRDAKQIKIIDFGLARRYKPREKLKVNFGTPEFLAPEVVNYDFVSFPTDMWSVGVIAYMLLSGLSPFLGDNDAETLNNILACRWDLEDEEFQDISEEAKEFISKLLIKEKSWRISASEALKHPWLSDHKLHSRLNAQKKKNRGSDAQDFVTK

[6] = target: Activated CDC42 kinase 1 (Homo sapiens) (UniProt Q07912); assay: Inhibition of human ACK1 assessed as enzyme activity at 1 uM using EAIYAAPFAKKK as substrate preincubated for 20 mins followed by [gamma-33P]-ATP addition and measured after 120 mins by radiometric Hot-SpotSM Kinase assay relative to control
Chain of Activated CDC42 kinase 1 (Homo sapiens) (Q07912 whole entry, looked up): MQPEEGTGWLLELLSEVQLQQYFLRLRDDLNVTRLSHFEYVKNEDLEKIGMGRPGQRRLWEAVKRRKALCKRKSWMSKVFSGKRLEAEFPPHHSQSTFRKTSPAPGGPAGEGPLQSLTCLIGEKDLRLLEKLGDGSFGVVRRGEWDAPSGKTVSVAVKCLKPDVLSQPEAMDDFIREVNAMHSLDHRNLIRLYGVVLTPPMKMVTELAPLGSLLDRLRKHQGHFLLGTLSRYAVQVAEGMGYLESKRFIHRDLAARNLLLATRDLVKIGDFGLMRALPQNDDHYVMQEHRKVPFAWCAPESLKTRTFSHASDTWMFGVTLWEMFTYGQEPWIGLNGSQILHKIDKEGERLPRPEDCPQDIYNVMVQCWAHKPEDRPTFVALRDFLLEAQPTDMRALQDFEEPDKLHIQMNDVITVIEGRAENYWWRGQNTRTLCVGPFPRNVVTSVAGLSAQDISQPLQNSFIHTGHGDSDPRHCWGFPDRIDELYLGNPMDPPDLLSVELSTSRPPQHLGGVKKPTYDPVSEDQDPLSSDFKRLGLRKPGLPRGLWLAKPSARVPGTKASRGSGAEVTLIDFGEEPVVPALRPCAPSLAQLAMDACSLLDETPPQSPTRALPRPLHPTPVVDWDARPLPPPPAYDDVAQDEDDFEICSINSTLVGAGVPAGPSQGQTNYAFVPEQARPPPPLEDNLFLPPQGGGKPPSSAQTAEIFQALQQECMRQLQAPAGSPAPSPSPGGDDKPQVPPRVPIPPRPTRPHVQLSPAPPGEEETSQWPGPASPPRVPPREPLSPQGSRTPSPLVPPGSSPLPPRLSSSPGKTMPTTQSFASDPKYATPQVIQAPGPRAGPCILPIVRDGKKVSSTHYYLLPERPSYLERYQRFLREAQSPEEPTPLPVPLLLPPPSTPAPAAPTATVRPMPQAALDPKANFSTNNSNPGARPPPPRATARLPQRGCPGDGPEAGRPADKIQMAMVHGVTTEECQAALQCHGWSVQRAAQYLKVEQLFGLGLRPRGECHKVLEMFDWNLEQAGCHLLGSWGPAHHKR

CC[C@H](Nc1ncnc2[nH]cnc12)c1nc2cccc(F)c2c(=O)n1-c1ccccc1
Activity [1]: 91% | Activity [2]: 94.6% | Activity [3]: 97% | Activity [4]: 94.7% | Activity [5]: 90.9% | Activity [6]: 90.7%

C[C@H](Nc1ncnc2nc[nH]c12)c1cc2cccc(Cl)c2c(=O)n1-c1ccccc1
Activity [1]: 92.9% | Activity [2]: 91.3% | Activity [3]: 109% | Activity [4]: 94.1% | Activity [5]: 93% | Activity [6]: 95.5%

CC(C)Oc1ccc(-c2nn([C@@H](C)c3oc4ccc(F)cc4c(=O)c3-c3cccc(F)c3)c3ncnc(N)c23)cc1F [UMBRALISIB]
Activity [1]: 91.5% | Activity [2]: 89.2% | Activity [3]: 112% | Activity [4]: 94.7% | Activity [5]: 92.3% | Activity [6]: 93.6%
